Values of other authors in US9168307B2, “Mitochondrial-targeted cationic nanoparticles comprising CaMKII inhibitors and uses thereof for treating and preventing diseases and disorders associated with CaMKII activity” (University of Iowa Research Foundation, priority 2012, dated 2015).

Tested on: CaMKII
Settings: starting point for dose response curve

IC50: 100 nM
Sequence: KRPPKLGQIGRAKRVVIEDDR (SEQ ID NO:1) [peptide]
